Data as given in patent publication US4461899A, “Fluorenecarboxylic acid derivatives” (Diamond Shamrock Chemicals Company, priority 1982, dated 1984).
“Also recorded” adds a separate entry of the source. Structures can show the parent of a compound that is named as a salt.

System: field grown tomato plants
Assay: Overall yield and fruit size of field grown tomatoes
Assay type: in vivo
Settings: for Fruit Size, Green (% of Control): control 104.0 g; for Fruit Size, Red (% of Control): control 105.5 g
Source text: This example illustrates the effects of compounds of this invention on overall yield of tomatoes. For the test, field grown tomato plants, when in the early flowering stage, were foliage sprayed with the particular compounds of the invention designated below, and with the commercial product CF-125 (Maintain), at rates of 10, 50 and 500 ppm. These rates correspond to applications of 3.69 g, 18.54 g and 185.4 g/hectare, respectively. Each treatment consisted of five plants; the experimental design was a complete randomized block with three replications. A block of untreated plants was included as the control. The fruit was harvested by hand and separated into […] ripe fruit and marketable green fruit.

Structure (SMILES): O=C(O)c1cccc2c1Cc1ccccc1-2 [Example 3, 2,6-Dimethyl piperidine salt of fluorene-1-carboxylic acid]
- tomato yield / fruit size, in words (10, 50 and 500 ppm, Example 1 decrease at 500 ppm): increased the yield of red fruit at all rates of application; also recorded: increasing the size of the fruit
- Fruit Yield, Green (% of Control) (10 ppm): 45 % of Control
- Fruit Yield, Red (% of Control) (10 ppm): 119 % of Control
- Total Yield (% of Control) (10 ppm): 70 % of Control
- Fruit Size, Green (% of Control) (10 ppm): 137 % of Control
- Fruit Size, Red (% of Control) (10 ppm): 161 % of Control
- Fruit Yield, Green (% of Control) (50 ppm): 69 % of Control
- Fruit Yield, Red (% of Control) (50 ppm): 122 % of Control
- Total Yield (% of Control) (50 ppm): 128 % of Control
- Fruit Size, Green (% of Control) (50 ppm): 101 % of Control
- Fruit Size, Red (% of Control) (50 ppm): 165 % of Control
- Fruit Yield, Green (% of Control) (500 ppm): 86 % of Control
- Fruit Yield, Red (% of Control) (500 ppm): 127 % of Control
- Total Yield (% of Control) (500 ppm): 59 % of Control
- Fruit Size, Green (% of Control) (500 ppm): 83 % of Control
- Fruit Size, Red (% of Control) (500 ppm): 127 % of Control
